Experimental data from publication PMC10520499, “Next step in the development of mesoprogestins: the preclinical profile of EC313” (Frontiers in Endocrinology, 2023).

What was measured:
human Erα = target: T1, human Erα (Homo sapiens, UniProt P03372); assay: ERα transactivation (CHO, ERE-LUC); assay type: cell-based
T1 construct: host or cells: CHO, transient co-transfection
Description: The CHO cell line was selected to express estrogen α and β protein and the gene expression under the tested compounds stimulation was analyzed. The co-transfection with vector encoding the human full-length steroid receptors hERα and hERβ and reporter vector ERE/LUC was performed. Transient and stable transfectants with protein overexpression were induced by tested compounds (17β-estradiol or EC313) or the mixture: estradiol and appropriate range of concentration of EC313. Agonist and antagonist properties of EC313 toward tested receptor ERα and ERβ were analyzed using luminescence detection.
Plasmid included vectors coding sequences for the receptor as well as the reporter gene. […]
The ability of EC313 to agonize and/or antagonize ER receptor expression was analyzed in the following test system: co-transfected CHO cells were stimulated with estradiol (0.009 nM - 1200 nM) and EC313 (0.009 nM - 1200 nM) for detection agonistic activity. The antagonistic activity was assessed during the competitive interaction between EC313 (0.009 nM - 1200nM) and an appropriate concentration of estradiol (see Table 3 ). […] After incubating the cells for 24h with the tested compounds, the luminescent signal generated by the luciferase activity was detected.

pregnant guinea pigs = assay: Abortive activity in pregnant guinea pigs; assay type: in vivo, guinea pig; conditions: 30 mg/animal/day s.c., pregnancy days 43 and 44
Description: In female animals, the second day of vaginal opening in the mating cycle was defined as day 1 of pregnancy (pregnancy length approx. 62 days). They were treated on days 43 and 44 by subcutaneous (s.c.) injection of the proprietary compounds EC312, EC313, EC323, and EC328 as well as UPA. All tested compounds were synthesized in Evestra Inc. The dose levels administered were 3, 10, and 30 mg/animal/day. The external genital organs were inspected for the presence of vaginal bleeding and fetal membranes (twice daily). The presence of expelled fetuses and placentae in the cages was also recorded at each inspection.
The animals were sacrificed on day 50 using CO2. Both uterine horns were dissected and their contents were inspected. Fresh corpora lutea (CL) were evidence of a recent ovulation.

[1] = system: immature female ovariectomized Wistar rats; assay: Uterus growth test in immature ovariectomized rats; assay type: in vivo, rat; conditions: daily s.c. doses of up to corresponding to 172 mg/kg body weight
Source text: […] The vehicle served as the negative control. After treatment, the animals were sacrificed on day 4, and their vagina and uterine horns were dissected and weighed.

[2] = system: human endometriotic tissue grafts; assay: Human endometriotic xenografts in immunodeficient mice; assay type: in vivo; conditions: s.c. once daily 14 days; EC313 0,01, 0.1, 1 mg/animal/day; Ulipristal acetate 1 mg/animal/day; vs vehicle control
Source text: Endometriosis is one of the expected clinical target indications for the development of EC313. But, there are no reliable pre-clinical models known at present. From all experimental approaches, the transplantation of human endometriotic tissue into immunodeficient mice resembles the clinical situation to some extent closely. Treatment of EC313 was compared with UPA as a reference compound. Two to four small pieces of human endometriotic tissue were placed into a s.c. pouch in the pelvic area of each of the ovariectomized mice. At the same time, an E2-releasing pellet (0.36 mg/pellet/60 days) was implanted s.c. in the neck of the mice. Furthermore, 2 weeks after implantation, the mice were treated with once-daily s.c. injections of vehicle, EC313 (0,01, 0.1, and 1 mg/animal/day), or Ulipristal acetate (1 mg/animal/day) for 14 days. The mice were sacrificed 24 hours after the last injection and all identified endometriotic grafts were resected, weighed, and subjected to visual examination.

T1 sequence (P03372 whole entry): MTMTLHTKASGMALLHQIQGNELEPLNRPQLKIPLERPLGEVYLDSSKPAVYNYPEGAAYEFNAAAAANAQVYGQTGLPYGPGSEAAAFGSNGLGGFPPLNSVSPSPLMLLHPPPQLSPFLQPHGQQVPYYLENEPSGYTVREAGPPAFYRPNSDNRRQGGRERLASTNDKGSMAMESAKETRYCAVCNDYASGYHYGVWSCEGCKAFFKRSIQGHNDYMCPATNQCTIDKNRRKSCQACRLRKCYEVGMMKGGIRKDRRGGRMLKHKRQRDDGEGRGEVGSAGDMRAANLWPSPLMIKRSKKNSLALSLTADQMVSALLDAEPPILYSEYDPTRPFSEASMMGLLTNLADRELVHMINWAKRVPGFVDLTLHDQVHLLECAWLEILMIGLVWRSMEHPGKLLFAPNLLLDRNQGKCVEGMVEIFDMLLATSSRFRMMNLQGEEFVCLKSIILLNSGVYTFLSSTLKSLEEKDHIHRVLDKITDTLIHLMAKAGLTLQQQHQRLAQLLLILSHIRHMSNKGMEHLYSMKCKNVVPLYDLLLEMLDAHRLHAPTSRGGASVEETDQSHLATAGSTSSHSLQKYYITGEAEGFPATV

Structure (SMILES): C[C@]12C[C@H](c3ccc(-c4ccoc4)cc3)C3=C4CCC(=O)C=C4CC[C@H]3[C@@H]1CC[C@]21OCCC1=C(F)F [EC313]
- agonistic or antagonistic activity (human Erα): no agonistic or antagonistic activity
- expulsion of uterine contents / fetal expulsions (animals) (pregnant guinea pigs): No fetal expulsions
- estrogenic / anti-estrogenic activity (uterine horn and vagina weights) [1]: neither estrogenic nor anti-estrogenic activity
- weights of human endometriotic tissue grafts [2]: significantly lower weights of the grafts
